{
  "source": "patent US20120004282A1",
  "about": "“RNA Interference Mediated Inhibition of the Intercellular Adhesion Molecule 1 (ICAM-1) Gene Expression Using Short Interfering Nucleic Acid (siNA)” (Merck Sharp & Dohme Corp,, priority 2009, published 2012)",
  "test_system": "ICAM-1 mRNA",
  "experiment": "ICAM-1 mRNA knock-down in transfected Calu-1 cells (Taqman RT-PCR)",
  "format": "cell-based, human",
  "details": "Calu-1 cells, 10 nM siNA, 24 hrs post-transfection, mean ± S.D., relative to non-targeting control",
  "procedure": "Calu-1 (human; ATCC cat# HTB-54): Cells were cultured at 37° C. in the presence of 5% CO2 and grown in McCoy's 5a medium supplemented with fetal bovine serum at a final concentration of 10% and 100 μg/mL of streptomycin and 100 U/mL penicillin.\nAll transfections were performed using RNAiMax (Invitrogen Cat# 13778-150) as per the manufacturer's instructions.\nCalu-1 cells were plated in all wells of a tissue-culture treated, 96-well plate at final counts of 5,000 cells/well in 100 μL of appropriate culture media. Cells were cultured for 24 hours after plating at 37° C. in the presence of 5% CO2.\nAfter 24 hours, complexes containing siNA and RNAiMax were created as follows. A solution of RNAiMax diluted 33-fold in OPTI-MEM was prepared. In parallel, solutions of the siNAs for testing were prepared to a final concentration of 120 nM in OPTI-MEM. After incubation of RNAiMax/OPTI-MEM solution at room temperature for 5 min, an equal volume of the siNA solution and the RNAiMax solution were added together for each of the siNAs. […] This solution was incubated at room temperature for 20 minutes. After incubation, 20 uL of the solution was added to each of the relevant wells. The final concentration of siNA in each well was 10 nM and the final volume of RNAiMax in each well was 0.3 uL.\nThe time of incubation with the RNAiMax-siNA complexes was 24 hours, unless otherwise indicated. There was no change in media between the transfection and harvesting of the cells unless otherwise indicated.\nDose response curves were carried out in a similar fashion in 96-well plates, while maintaining a constant amount of RNAiMax in each transfection.\nRNA was extracted from a 96-well plate using the TaqMan® Gene Expression Cells-to-CT™ Kit (Cat# 4399002) with a modified protocol. Briefly, a 60 uL (1 plate) or 110 uL (2 plates) of the Lysis Solution with DNase I was dispensed into each well of the Lysis Buffer Plate (twin.tec full skirt plate). The lysis buffer and stop plates were stored at 4° C. until the cells were washed.\nThe plate was spun at 1100 rpm for 5 minutes. The culture medium was aspirated and discarded from the wells of the culture plate. The lysis was performed automatically using a BioMek FX instrument and method. After the Biomek method was completed, the lysis plate was incubated for 2 min. at room temperature. The lysis plate can be stored for 2 hours at 4° C., or at −20° C. or −80° C. for two months.\nEach well of the reverse transcription plate required 10 uL of 2× reverse transcriptase Buffer, 1 uL of 20× reverse transcription enzyme and 2 uL of nuclease-free water. The reverse transcription master mix was prepared by mixing 2× reverse transcription buffer, 20× reverse transcription enzyme mix, and nuclease-free water. 13 uL of the reverse transcription master mix was dispensed into each well of the reverse transcription plate (semi-skirted). A separate reverse transcription plate was prepared for each cell plate. The plate was loaded onto a Biomek NX or Biomek FX Dual-96 and the Biomek method was run. The program is programmed to automatically added 7 uL of lysate from the cell lysis procedure described above into each well of the reverse transcription plate. The plate is sealed and spun on a centrifuge (1000 rpm for 30 seconds) to settle the contents to the bottom of the reverse transcription plate. The plate is placed in a thermocycler at 37° C. for 60 min, 95° C. for 5 min, and 4° C. until the plate is removed from the thermocycler. Upon removal, if not used immediately, the plate was frozen at −20° C.\nA series of probes and primers were used to detect the various mRNA transcripts of the genes of ICAM-1 and ICAM-2 in human cell lines (see Table 2). All the Taqman probes and primers for the experiments here-in described were supplied as pre-validated sets by Applied Biosystems, Inc., (see Table 2). The assays were performed on an ABI 7900 instrument, according to the manufacturer's instructions. […]",
  "note": "[invAb] = inverted abasic unit; m = 2'-O-methyl; r = 2'-OH (RNA); f = 2'-fluoro",
  "data": [
    {"substance": "29281-DC: siNA duplex, ICAM-1 target site 1650 (h); sense B cAGuGAcuGucAcucGAGA TTB; antisense UCUcGAGuGAcAGucAcuGUU (sense CAGUGACUGUCACUCGAGATT; antisense UCUCGAGUGACAGUCACUGUU; sense: DNA at AGT, 2'-fluoro at CU, [invAb] at 5' end, 3' end, backbone not given here; antisense: sugars from the 5' end rrrfmmmfmmfmmffmffmmm, backbone not given here)", "values": [
      {"measurement": "% KD Human", "result": "45 ± 21", "unit": "%"}
    ]},
    {"substance": "29283-DC: siNA duplex, ICAM-1 target site 1811 (h); sense B cucAGcAcGuAccucuAuA TTB; antisense UAUAGAGGuAcGuGcuGAGUU (sense CUCAGCACGUACCUCUAUATT; antisense UAUAGAGGUACGUGCUGAGUU; sense: DNA at AGT, 2'-fluoro at CU, [invAb] at 5' end, 3' end, backbone not given here; antisense: sugars from the 5' end rrrmmmmmfmfmfmffmmmmm, backbone not given here)", "values": [
      {"measurement": "% KD Human", "result": "63 ± 8", "unit": "%"}
    ]},
    {"substance": "29289-DC: siNA duplex, ICAM-1 target site 2152 (h); sense B GGAGcAAGAcucAAGAcAu TTB; antisense AUGucuuGAGucuuGcuccUU (sense GGAGCAAGACUCAAGACAUTT; antisense AUGUCUUGAGUCUUGCUCCUU; sense: DNA at AGT, 2'-fluoro at CU, [invAb] at 5' end, 3' end, backbone not given here; antisense: sugars from the 5' end rrrffffmmmffffmffffmm, backbone not given here)", "values": [
      {"measurement": "% KD Human", "result": "78 ± 15", "unit": "%"}
    ]},
    {"substance": "29290-DC: siNA duplex, ICAM-1 target site 1226 (h); sense B cAGAcAGuGAccAucuAcA TTB; antisense UGUAGAuGGucAcuGucuGUU (sense CAGACAGUGACCAUCUACATT; antisense UGUAGAUGGUCACUGUCUGUU; sense: DNA at AGT, 2'-fluoro at CU, [invAb] at 5' end, 3' end, backbone not given here; antisense: sugars from the 5' end rrrmmmfmmffmffmfffmmm, backbone not given here)", "values": [
      {"measurement": "% KD Human", "result": "47 ± 18", "unit": "%"}
    ]},
    {"substance": "29291-DC: siNA duplex, ICAM-1 target site 2120 (h); sense B GAucuGuAGucAcAuGAcu TTB; antisense AGUcAuGuGAcuAcAGAucUU (sense GAUCUGUAGUCACAUGACUTT; antisense AGUCAUGUGACUACAGAUCUU; sense: DNA at AGT, 2'-fluoro at CU, [invAb] at 5' end, 3' end, backbone not given here; antisense: sugars from the 5' end rrrfmfmfmmffmfmmmffmm, backbone not given here)", "values": [
      {"measurement": "% KD Human", "result": "84 ± 7", "unit": "%"}
    ]},
    {"substance": "29292-DC: siNA duplex, ICAM-1 target site 863 (h); sense B GccAAuuucucGuGccGcA TTB; antisense UGCGGcAcGAGAAAuuGGcUU (sense GCCAAUUUCUCGUGCCGCATT; antisense UGCGGCACGAGAAAUUGGCUU; sense: DNA at AGT, 2'-fluoro at CU, [invAb] at 5' end, 3' end, backbone not given here; antisense: sugars from the 5' end rrrmmfmfmmmmmmffmmfmm, backbone not given here)", "values": [
      {"measurement": "% KD Human", "result": "76 ± 3", "unit": "%"}
    ]},
    {"substance": "48697-DC: siNA duplex, ICAM-1 target site 1641 (m); sense B GcucAGGAGGAGGccAuAA TTB; antisense UUAuGGccuccuccuGAGcUU (sense GCUCAGGAGGAGGCCAUAATT; antisense UUAUGGCCUCCUCCUGAGCUU; sense: DNA at AGT, 2'-fluoro at CU, [invAb] at 5' end, 3' end, backbone not given here; antisense: sugars from the 5' end rrrfmmfffffffffmmmfmm, backbone not given here)", "values": [
      {"measurement": "% KD Human", "result": "14 ± 11", "unit": "%"}
    ]},
    {"substance": "48698-DC: siNA duplex, ICAM-1 target site 1611 (m); sense B AGAAAGAucAGGAuAuAcA TTB; antisense UGUAuAuccuGAucuuucuUU (sense AGAAAGAUCAGGAUAUACATT; antisense UGUAUAUCCUGAUCUUUCUUU; sense: DNA at AGT, 2'-fluoro at CU, [invAb] at 5' end, 3' end, backbone not given here; antisense: sugars from the 5' end rrrmfmffffmmfffffffmm, backbone not given here)", "values": [
      {"measurement": "% KD Human", "result": "34 ± 6", "unit": "%"}
    ]},
    {"substance": "48699-DC: siNA duplex, ICAM-1 target site 668 (m); sense B GcuGGcAuuGuucucuAAu TTB; antisense AUUAGAGAAcAAuGccAGcUU (sense GCUGGCAUUGUUCUCUAAUTT; antisense AUUAGAGAACAAUGCCAGCUU; sense: DNA at AGT, 2'-fluoro at CU, [invAb] at 5' end, 3' end, backbone not given here; antisense: sugars from the 5' end rrrmmmmmmfmmfmffmmfmm, backbone not given here)", "values": [
      {"measurement": "% KD Human", "result": "25 ± 9", "unit": "%"}
    ]},
    {"substance": "48700-DC: siNA duplex, ICAM-1 target site 1549 (m); sense B uGccAGuAcuGcuGGucAu TTB; antisense AUGAccAGcAGuAcuGGcAUU (sense UGCCAGUACUGCUGGUCAUTT; antisense AUGACCAGCAGUACUGGCAUU; sense: DNA at AGT, 2'-fluoro at CU, [invAb] at 5' end, 3' end, backbone not given here; antisense: sugars from the 5' end rrrmffmmfmmfmffmmfmmm, backbone not given here)", "values": [
      {"measurement": "% KD Human", "result": "13 ± 5", "unit": "%"}
    ]},
    {"substance": "48701-DC: siNA duplex, ICAM-1 target site 1505 (m); sense B AGuAcuGuAccAcucucAA TTB; antisense UUGAGAGuGGuAcAGuAcuUU (sense AGUACUGUACCACUCUCAATT; antisense UUGAGAGUGGUACAGUACUUU; sense: DNA at AGT, 2'-fluoro at CU, [invAb] at 5' end, 3' end, backbone not given here; antisense: sugars from the 5' end rrrmmmmfmmfmfmmfmffmm, backbone not given here)", "values": [
      {"measurement": "% KD Human", "result": "3 ± 17", "unit": "%"}
    ]},
    {"substance": "48702-DC: siNA duplex, ICAM-1 target site 990 (m); sense B AccuuAAcAGucuAcAAcu TTB; antisense AGUuGuAGAcuGuuAAGGuUU (sense ACCUUAACAGUCUACAACUTT; antisense AGUUGUAGACUGUUAAGGUUU; sense: DNA at AGT, 2'-fluoro at CU, [invAb] at 5' end, 3' end, backbone not given here; antisense: sugars from the 5' end rrrfmfmmmffmffmmmmfmm, backbone not given here)", "values": [
      {"measurement": "% KD Human", "result": "19 ± 6", "unit": "%"}
    ]},
    {"substance": "48703-DC: siNA duplex, ICAM-1 target site 394 (m); sense B ccGuGuAuucGuuuccGGA TTB; antisense UCCGGAAAcGAAuAcAcGGUU (sense CCGUGUAUUCGUUUCCGGATT; antisense UCCGGAAACGAAUACACGGUU; sense: DNA at AGT, 2'-fluoro at CU, [invAb] at 5' end, 3' end, backbone not given here; antisense: sugars from the 5' end rrrmmmmmfmmmfmfmfmmmm, backbone not given here)", "values": [
      {"measurement": "% KD Human", "result": "30 ± 15", "unit": "%"}
    ]}
  ]
}
